{
  "source": "ChEMBL document CHEMBL5620362",
  "about": "(Eur J Med Chem, 2023)",
  "key": {"EOL1": {"tested_on": "EOL1", "test": "Anticancer activity against human EOL1 cells incubated for 72 hrs", "format": "functional, cell-based"}, "HPAF-II [1]": {"tested_on": "HPAF-II", "test": "Induction of apoptosis in human HPAF-II cells assessed as viable cells at 10 uM incubated for 48 hrs by Annexin V-FITC/PI staining based flow cytometry (reference value: 89.73 %)", "format": "functional", "conditions": "read-out: Activity"}, "HPAF-II [2]": {"tested_on": "HPAF-II", "test": "Induction of apoptosis in human HPAF-II cells assessed as viable cells at 1 uM incubated for 48 hrs by Annexin V-FITC/PI staining based flow cytometry (reference value: 89.73 %)", "format": "functional", "conditions": "read-out: Activity"}, "[3]": {"test": "AUC (infinity) in ICR mouse at 10 mg/kg, po", "format": "ADME, organism-based", "conditions": "in vivo"}, "[4]": {"test": "AUClast in ICR mouse at 3 mg/kg, iv", "format": "ADME, organism-based", "conditions": "in vivo"}, "[5]": {"test": "MRT (infinity) in ICR mouse at 10 mg/kg, po", "format": "ADME, organism-based", "conditions": "in vivo"}, "NCI-H23 [6]": {"tested_on": "NCI-H23", "test": "Induction of apoptosis in human NCI-H23 cells assessed as viable cells at 10 uM incubated for 48 hrs by Annexin V-FITC/PI staining based flow cytometry (reference value: 92.16 %)", "format": "functional", "conditions": "read-out: Activity"}, "NCI-H23 [7]": {"tested_on": "NCI-H23", "test": "Induction of apoptosis in human NCI-H23 cells assessed as late apoptotic cells at 0.1 uM incubated for 48 hrs by Annexin V-FITC/PI staining based flow cytometry (reference value: 2.89 %)", "format": "functional"}, "NCI-H23 [8]": {"tested_on": "NCI-H23", "test": "Induction of apoptosis in human NCI-H23 cells assessed as early apoptotic cells at 0.01 uM incubated for 48 hrs by Annexin V-FITC/PI staining based flow cytometry (reference value: 4.17 %)", "format": "functional"}, "NCI-H23 [9]": {"tested_on": "NCI-H23", "test": "Induction of apoptosis in human NCI-H23 cells assessed as necrotic cells at 0.01 uM incubated for 48 hrs by Annexin V-FITC/PI staining based flow cytometry (reference value: 0.78 %)", "format": "functional"}, "NCI-H23 [10]": {"tested_on": "NCI-H23", "test": "Induction of apoptosis in human NCI-H23 cells assessed as viable cells at 1 uM incubated for 48 hrs by Annexin V-FITC/PI staining based flow cytometry (reference value: 92.16 %)", "format": "functional", "conditions": "read-out: Activity"}, "HPAF-II [11]": {"tested_on": "HPAF-II", "test": "Induction of apoptosis in human HPAF-II cells assessed as late apoptotic cells at 0.1 uM incubated for 48 hrs by Annexin V-FITC/PI staining based flow cytometry (reference value: 1.28 %)", "format": "functional"}, "HPAF-II [12]": {"tested_on": "HPAF-II", "test": "Induction of apoptosis in human HPAF-II cells assessed as late apoptotic cells at 0.01 uM incubated for 48 hrs by Annexin V-FITC/PI staining based flow cytometry (reference value: 1.28 %)", "format": "functional"}, "CFPAC-1": {"tested_on": "CFPAC-1", "test": "Anticancer activity against human CFPAC-1 cells incubated for 72 hrs", "format": "functional, cell-based"}, "HPAF-II [13]": {"tested_on": "HPAF-II", "test": "Downregulation of MEK phosphorylation level in human HPAF-II cells harboring siROR-gamma at 0.1 uM by Western blot analysis", "format": "functional, cell-based"}, "HPAF-II [14]": {"tested_on": "HPAF-II", "test": "Induction of apoptosis in human HPAF-II cells assessed as reduction in MCL-1 level at 0.1 to 1 uM incubated for 48 hrs by Western blot analysis", "format": "functional, cell-based", "conditions": "dose 0.1-1 µM"}, "[15]": {"test": "Toxicity in nude Balb/cA mouse xenografted with human HPAF-II cells assessed as swelling at injection site at 15 mg/kg, ip qd measured for 12 days", "format": "organism-based", "conditions": "in vivo, 288 h, time 12 day"}, "NCI-H23 [16]": {"tested_on": "NCI-H23", "test": "Induction of apoptosis in human NCI-H23 cells assessed as viable cells at 0.01 uM incubated for 48 hrs by Annexin V-FITC/PI staining based flow cytometry (reference value: 92.16 %)", "format": "functional", "conditions": "read-out: Activity"}, "[17]": {"test": "Toxicity in nude Balb/cA mouse xenografted with human HPAF-II cells assessed as redness at injection site at 15 mg/kg, ip qd measured for 12 days", "format": "organism-based", "conditions": "in vivo, 288 h, time 12 day"}, "HPAF-II [18]": {"tested_on": "HPAF-II", "test": "Antitumor activity against human HPAF-II cells xenografted in nude Balb/cA mouse assessed as tumor growth inhibition at 90 mg/kg, po qd measured for 12 days relative to control", "format": "functional", "design": "scale not given: the % may be the effect or the level left", "conditions": "time 12 day"}, "HPAF-II [19]": {"tested_on": "HPAF-II", "test": "Downregulation of phosphorylated ERK expression in human HPAF-II cells at 0.1 to 1 uM incubated for 48 hrs by Western blot analysis", "format": "functional, cell-based", "conditions": "dose 0.1-1 µM"}, "[20]": {"test": "AUClast in ICR mouse at 10 mg/kg, po", "format": "ADME, organism-based", "conditions": "in vivo"}, "HPAF-II [21]": {"tested_on": "HPAF-II", "test": "Induction of apoptosis in human HPAF-II cells assessed as late apoptotic cells at 1 uM incubated for 48 hrs by Annexin V-FITC/PI staining based flow cytometry (reference value: 1.28 %)", "format": "functional"}, "[22]": {"biological_target": "T1, Nuclear receptor ROR-gamma (Homo sapiens, UniProt P51449)", "T1 sequence (P51449 whole entry)": "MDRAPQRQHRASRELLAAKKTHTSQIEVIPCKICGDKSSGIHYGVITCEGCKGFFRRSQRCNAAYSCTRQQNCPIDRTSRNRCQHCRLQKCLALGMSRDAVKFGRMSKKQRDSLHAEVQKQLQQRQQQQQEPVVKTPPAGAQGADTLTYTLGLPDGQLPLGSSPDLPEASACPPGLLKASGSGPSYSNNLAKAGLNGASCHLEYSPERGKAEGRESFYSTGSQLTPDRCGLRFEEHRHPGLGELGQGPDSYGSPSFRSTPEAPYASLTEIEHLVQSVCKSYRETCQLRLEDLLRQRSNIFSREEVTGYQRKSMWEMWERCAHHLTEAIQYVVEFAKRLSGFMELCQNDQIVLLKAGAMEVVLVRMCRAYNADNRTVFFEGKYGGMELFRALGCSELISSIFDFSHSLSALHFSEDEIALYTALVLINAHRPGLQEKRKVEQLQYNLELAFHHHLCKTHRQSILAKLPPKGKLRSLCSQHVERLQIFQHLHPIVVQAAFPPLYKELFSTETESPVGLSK", "test": "Binding affinity to CM5 chip-immobilized recombinant ROR-gamma LBD (unknown origin) assessed as dissociation constant by SPR analysis"}, "HPAF-II [23]": {"tested_on": "HPAF-II", "test": "Antitumor activity against human HPAF-II cells measured after 72 hrs", "format": "functional, cell-based"}, "NCI-H23 [24]": {"tested_on": "NCI-H23", "test": "Induction of apoptosis in human NCI-H23 cells assessed as necrotic cells at 0.1 uM incubated for 48 hrs by Annexin V-FITC/PI staining based flow cytometry (reference value: 0.78 %)", "format": "functional"}, "NCI-H23 [25]": {"tested_on": "NCI-H23", "test": "Induction of apoptosis in human NCI-H23 cells assessed as late apoptotic cells at 0.01 uM incubated for 48 hrs by Annexin V-FITC/PI staining based flow cytometry (reference value: 2.89 %)", "format": "functional"}, "MIA PaCa-2 [26]": {"tested_on": "MIA PaCa-2", "test": "Inhibition of colony formation in human MIA PaCa-2 cells harboring siROR-gamma 0.1 uM incubated for 6 to 7 days by crystal violet staining based analysis", "format": "functional, cell-based", "conditions": "time 6-7 day"}, "NCI-H23 [27]": {"tested_on": "NCI-H23", "test": "Induction of apoptosis in human NCI-H23 cells assessed as early apoptotic cells at 10 uM incubated for 48 hrs by Annexin V-FITC/PI staining based flow cytometry (reference value: 4.17 %)", "format": "functional"}, "HPAF-II [28]": {"tested_on": "HPAF-II", "test": "Induction of apoptosis in human HPAF-II cells assessed as necrotic cells at 0.01 uM incubated for 48 hrs by Annexin V-FITC/PI staining based flow cytometry (reference value: 8.09 %)", "format": "functional"}, "HPAF-II [29]": {"tested_on": "HPAF-II", "test": "Induction of apoptosis in human HPAF-II cells assessed as increase in cleaved PARP level at 0.1 to 1 uM incubated for 48 hrs by Western blot analysis", "format": "functional, cell-based", "conditions": "dose 0.1-1 µM"}, "MIA PaCa-2 [30]": {"tested_on": "MIA PaCa-2", "test": "Anticancer activity against human MIA PaCa-2 cells incubated for 72 hrs", "format": "functional, cell-based"}, "[31]": {"test": "Cmax in ICR mouse at 10 mg/kg, po", "format": "ADME, organism-based", "conditions": "in vivo"}, "[32]": {"test": "Oral bioavailability in ICR mouse at 10 mg/kg", "format": "ADME, organism-based", "conditions": "in vivo"}},
  "note": "Active and inactive are the calls of the source. No cut-off for these calls is given here.",
  "data": [
    {"molecule": "C=C(C)[C@@H]1CC[C@]2(C(=O)NCCCN(C)C)CC[C@]3(C)[C@H](CC[C@@H]4[C@@]5(C)CC[C@H](O)C(C)(C)[C@@H]5CC[C@]43C)[C@@H]12", "values": [
      {"measurement": "Activity", "setting": "EOL1", "value": "Active"},
      {"measurement": "viability at 10 µM", "setting": "HPAF-II [1]", "value": 5.04, "unit": "%"},
      {"measurement": "viability at 1 µM", "setting": "HPAF-II [2]", "value": 38.2, "unit": "%"},
      {"measurement": "AUC(0-inf)", "setting": "[3]", "value": 2050, "unit": "ng·h/mL"},
      {"measurement": "AUC(0-t)", "setting": "[4]", "value": 2980, "unit": "ng·h/mL"},
      {"measurement": "MRT inf", "setting": "[5]", "value": 16.6, "unit": "h"},
      {"measurement": "viability at 10 µM", "setting": "NCI-H23 [6]", "value": 6.54, "unit": "%"},
      {"measurement": "Activity", "setting": "NCI-H23 [7]", "value": 12.32, "unit": "%"},
      {"measurement": "Activity", "setting": "NCI-H23 [8]", "value": 4.06, "unit": "%"},
      {"measurement": "Activity", "setting": "NCI-H23 [9]", "value": 2.81, "unit": "%"},
      {"measurement": "viability at 1 µM", "setting": "NCI-H23 [10]", "value": 12.7, "unit": "%"},
      {"measurement": "Activity", "setting": "HPAF-II [11]", "value": 12.13, "unit": "%"},
      {"measurement": "Activity", "setting": "HPAF-II [12]", "value": 4.48, "unit": "%"},
      {"measurement": "Activity", "setting": "CFPAC-1", "value": "Active"},
      {"measurement": "Activity", "setting": "HPAF-II [13]", "value": "Active"},
      {"measurement": "Activity", "setting": "HPAF-II [14]", "value": "Active"},
      {"measurement": "Activity", "setting": "[15]", "value": "Toxic"},
      {"measurement": "viability at 0.01 µM", "setting": "NCI-H23 [16]", "value": 86.3, "unit": "%"},
      {"measurement": "Activity", "setting": "[17]", "value": "Toxic"},
      {"measurement": "Activity", "setting": "HPAF-II [18]", "value": 21, "unit": "%"},
      {"measurement": "Activity", "setting": "HPAF-II [19]", "value": "Active"},
      {"measurement": "AUC(0-t)", "setting": "[20]", "value": 1670, "unit": "ng·h/mL"},
      {"measurement": "Activity", "setting": "HPAF-II [21]", "value": 20.27, "unit": "%"},
      {"measurement": "Kd", "setting": "[22]", "value": 180, "unit": "nM"},
      {"measurement": "IC50", "setting": "HPAF-II [23]", "value": 90, "unit": "nM"},
      {"measurement": "Activity", "setting": "NCI-H23 [24]", "value": 4.71, "unit": "%"},
      {"measurement": "Activity", "setting": "NCI-H23 [25]", "value": 6.78, "unit": "%"},
      {"measurement": "inhibition", "setting": "MIA PaCa-2 [26]", "value": "inactive"},
      {"measurement": "Activity", "setting": "NCI-H23 [27]", "value": 64.02, "unit": "%"},
      {"measurement": "Activity", "setting": "HPAF-II [28]", "value": 7.52, "unit": "%"},
      {"measurement": "Activity", "setting": "HPAF-II [29]", "value": "Active"},
      {"measurement": "Activity", "setting": "MIA PaCa-2 [30]", "value": "Active"},
      {"measurement": "Cmax", "setting": "[31]", "value": 114, "unit": "ng/mL"},
      {"measurement": "bioavailability", "setting": "[32]", "value": 16.8, "unit": "%"}
    ]}
  ]
}
